Measurements taken from the NIST ThermoML archive (doi:10.1016/j.tca.2005.11.041).

Experiment: excess molar enthalpy (molar enthalpy of mixing); xn = mol fraction of the nth substance listed
Settings: Liquid, Flow calorimetry

COC=O [methyl methanoate] + CCCCO
298.15 K
Settings	excess molar enthalpy [kJ/mol]
5000 kPa, x1 = 0.0501	0.4421
5000 kPa, x1 = 0.1	0.8313
5000 kPa, x1 = 0.1496	1.145
5000 kPa, x1 = 0.2	1.401
5000 kPa, x1 = 0.2496	1.597
5000 kPa, x1 = 0.2999	1.748
5000 kPa, x1 = 0.3508	1.852
5000 kPa, x1 = 0.4004	1.921
5000 kPa, x1 = 0.4503	1.95
5000 kPa, x1 = 0.5003	1.947
5000 kPa, x1 = 0.5505	1.91
5000 kPa, x1 = 0.6006	1.841
5000 kPa, x1 = 0.6505	1.73
5000 kPa, x1 = 0.7002	1.593
5000 kPa, x1 = 0.7494	1.431
5000 kPa, x1 = 0.8004	1.212
5000 kPa, x1 = 0.8509	0.971
5000 kPa, x1 = 0.9006	0.6776
5000 kPa, x1 = 0.9495	0.345
10000 kPa, x1 = 0.05	0.4411
10000 kPa, x1 = 0.0997	0.8281
10000 kPa, x1 = 0.1506	1.149
10000 kPa, x1 = 0.1994	1.396
10000 kPa, x1 = 0.2505	1.597
10000 kPa, x1 = 0.2992	1.742
10000 kPa, x1 = 0.35	1.848
10000 kPa, x1 = 0.3996	1.909
10000 kPa, x1 = 0.4495	1.941
10000 kPa, x1 = 0.4995	1.935
10000 kPa, x1 = 0.5497	1.896
10000 kPa, x1 = 0.5998	1.822
10000 kPa, x1 = 0.6498	1.717
10000 kPa, x1 = 0.6995	1.586
10000 kPa, x1 = 0.7511	1.41
10000 kPa, x1 = 0.7999	1.205
10000 kPa, x1 = 0.8505	0.9554
10000 kPa, x1 = 0.9003	0.6662
10000 kPa, x1 = 0.9493	0.3316

COC=O [methyl methanoate] + CCCO
excess molar enthalpy [kJ/mol]
Settings	298.15 K	333.15 K
5000 kPa, x1 = 0.0399	0.328	–
5000 kPa, x1 = 0.0788	0.6211	–
5000 kPa, x1 = 0.1201	0.8882	–
5000 kPa, x1 = 0.1621	1.116	–
5000 kPa, x1 = 0.2066	1.311	–
5000 kPa, x1 = 0.2501	1.469	–
5000 kPa, x1 = 0.2944	1.59	–
5000 kPa, x1 = 0.3414	1.681	–
5000 kPa, x1 = 0.3893	1.747	–
5000 kPa, x1 = 0.4381	1.777	–
5000 kPa, x1 = 0.4878	1.788	–
5000 kPa, x1 = 0.5386	1.764	–
5000 kPa, x1 = 0.5903	1.706	–
5000 kPa, x1 = 0.6452	1.605	–
5000 kPa, x1 = 0.699	1.475	–
5000 kPa, x1 = 0.7562	1.281	–
5000 kPa, x1 = 0.8146	1.06	–
5000 kPa, x1 = 0.8743	0.7735	–
5000 kPa, x1 = 0.9376	0.4064	–
10000 kPa, x1 = 0.0398	0.3424	–
10000 kPa, x1 = 0.0403	–	0.336
10000 kPa, x1 = 0.0786	0.6463	–
10000 kPa, x1 = 0.0788	–	0.6704
10000 kPa, x1 = 0.1197	0.9222	–
10000 kPa, x1 = 0.1205	–	0.9868
10000 kPa, x1 = 0.1616	1.153	–
10000 kPa, x1 = 0.1629	–	1.264
10000 kPa, x1 = 0.2061	1.358	1.497
10000 kPa, x1 = 0.2495	1.515	–
10000 kPa, x1 = 0.25	–	1.69
10000 kPa, x1 = 0.2937	1.637	–
10000 kPa, x1 = 0.2948	–	1.851
10000 kPa, x1 = 0.3404	–	1.973
10000 kPa, x1 = 0.3407	1.73	–
10000 kPa, x1 = 0.3868	–	2.058
10000 kPa, x1 = 0.3885	1.792	–
10000 kPa, x1 = 0.437	–	2.11
10000 kPa, x1 = 0.4373	1.824	–
10000 kPa, x1 = 0.4853	–	2.128
10000 kPa, x1 = 0.487	1.823	–
10000 kPa, x1 = 0.5374	–	2.098
10000 kPa, x1 = 0.5377	1.791	–
10000 kPa, x1 = 0.5895	1.726	–
10000 kPa, x1 = 0.5907	–	2.035
10000 kPa, x1 = 0.6444	1.621	–
10000 kPa, x1 = 0.645	–	1.92
10000 kPa, x1 = 0.6983	1.492	–
10000 kPa, x1 = 0.7005	–	1.754
10000 kPa, x1 = 0.7556	1.303	–
10000 kPa, x1 = 0.7572	–	1.529
10000 kPa, x1 = 0.8141	1.07	–
10000 kPa, x1 = 0.8151	–	1.267
10000 kPa, x1 = 0.8739	0.773	–
10000 kPa, x1 = 0.8743	–	0.9357
10000 kPa, x1 = 0.9347	–	0.5167
10000 kPa, x1 = 0.9374	0.4032	–
